Here are results for two compounds from paper PMC6465099 (Clinical Pharmacology and Therapeutics, 2018).

The structures appear in SMILES notation.

For series [1] the following is noted: patients with cancer and healthy subjects; cited from earlier work.
The target of series [2] is MATE2-K (Homo sapiens, UniProt Q86VL8). In words: Inhibition of MATE2-K-mediated. Type of series: cell-based. The note with it: sum of unbound Cmax/IC50 of abemaciclib, M2 and M20.
A short description of series [3]: Clinical study: serum creatinine and estimated GFR after abemaciclib. Type of series: in vivo, human.
The nature of series [4]: Clinical crossover study: iohexol clearance. Type of series: in vivo, human. The note with it: for clearance: human, plasma, intravenous.
Series [5] can be described thus: Clinical study: renal injury biomarkers. Type of series: in vivo, human.
Series [6] concerns the target T1, OCT2 (Homo sapiens, UniProt O15244).
T1 sequence (O15244 1-555): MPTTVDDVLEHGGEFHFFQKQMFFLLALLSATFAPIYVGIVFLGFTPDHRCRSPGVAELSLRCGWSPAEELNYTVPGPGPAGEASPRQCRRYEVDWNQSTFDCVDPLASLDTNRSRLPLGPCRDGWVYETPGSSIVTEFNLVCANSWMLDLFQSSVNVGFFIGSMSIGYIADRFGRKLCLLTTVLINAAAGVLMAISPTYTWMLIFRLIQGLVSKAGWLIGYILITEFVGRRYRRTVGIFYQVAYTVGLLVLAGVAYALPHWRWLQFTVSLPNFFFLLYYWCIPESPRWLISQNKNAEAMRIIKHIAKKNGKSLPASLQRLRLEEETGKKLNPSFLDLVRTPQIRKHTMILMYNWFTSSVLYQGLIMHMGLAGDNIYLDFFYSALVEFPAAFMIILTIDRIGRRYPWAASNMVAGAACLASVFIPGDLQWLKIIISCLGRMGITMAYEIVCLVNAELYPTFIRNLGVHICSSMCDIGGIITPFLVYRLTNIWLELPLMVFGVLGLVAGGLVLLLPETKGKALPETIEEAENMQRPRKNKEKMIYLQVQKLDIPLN
In words: Inhibition of OCT2-mediated. Type of series: cell-based. The note with it: sum of unbound Cmax/IC50 of abemaciclib, M2 and M20.

In series [7] the target is T2, MATE1 (Homo sapiens, UniProt Q96FL8).
T2 sequence (Q96FL8 1-570): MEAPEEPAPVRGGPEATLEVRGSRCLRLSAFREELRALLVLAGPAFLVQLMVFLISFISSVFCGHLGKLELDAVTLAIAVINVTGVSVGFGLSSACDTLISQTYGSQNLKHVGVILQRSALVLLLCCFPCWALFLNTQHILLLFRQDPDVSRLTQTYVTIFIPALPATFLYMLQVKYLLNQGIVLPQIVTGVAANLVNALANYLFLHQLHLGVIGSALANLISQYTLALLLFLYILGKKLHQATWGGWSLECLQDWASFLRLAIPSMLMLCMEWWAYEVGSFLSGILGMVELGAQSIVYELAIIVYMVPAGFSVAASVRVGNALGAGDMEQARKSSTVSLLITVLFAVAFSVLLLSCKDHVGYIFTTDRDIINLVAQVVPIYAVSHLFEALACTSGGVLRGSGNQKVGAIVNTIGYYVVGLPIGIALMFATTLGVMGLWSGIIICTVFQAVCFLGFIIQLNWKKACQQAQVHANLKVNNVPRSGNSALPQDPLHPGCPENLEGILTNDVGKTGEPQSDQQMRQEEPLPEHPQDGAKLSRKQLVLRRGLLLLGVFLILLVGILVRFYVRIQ
In words: Inhibition of MATE1-mediated. Type of series: cell-based. The note with it: sum of unbound Cmax/IC50 of abemaciclib, M2 and M20.

MATE2-K, sequence (Q86VL8 1-566 isoform Q86VL8-3): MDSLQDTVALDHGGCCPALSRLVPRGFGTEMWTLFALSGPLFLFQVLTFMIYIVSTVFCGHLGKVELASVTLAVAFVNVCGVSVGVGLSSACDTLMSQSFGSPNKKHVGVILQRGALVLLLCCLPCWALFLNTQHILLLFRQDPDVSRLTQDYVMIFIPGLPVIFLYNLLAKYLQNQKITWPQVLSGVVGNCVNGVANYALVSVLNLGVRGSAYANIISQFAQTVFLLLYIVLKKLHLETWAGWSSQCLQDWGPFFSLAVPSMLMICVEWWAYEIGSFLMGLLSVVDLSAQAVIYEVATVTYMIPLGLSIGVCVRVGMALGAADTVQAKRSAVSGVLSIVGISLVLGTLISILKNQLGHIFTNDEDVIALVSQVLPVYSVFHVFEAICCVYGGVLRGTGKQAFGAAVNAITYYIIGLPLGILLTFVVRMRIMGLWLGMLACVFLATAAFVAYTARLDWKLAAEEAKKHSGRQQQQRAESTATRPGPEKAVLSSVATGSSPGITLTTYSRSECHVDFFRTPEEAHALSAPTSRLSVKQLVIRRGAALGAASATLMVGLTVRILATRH

On to `CCN1CCN(Cc2ccc(Nc3ncc(F)c(-c4cc(F)c5nc(C)n(C(C)C)c5c4)n3)nc2)CC1` [Abemaciclib], for which, in series [1], the “Reversible increase in serum creatinine over baseline” value is given as 15–40%. For the same compound, the “Combined DDI index, MATE2-K” value in series [2] came out at 0.06. The “eGFR (CKD-EPI equation using SCr)” value in series [3] (abemaciclib in combination with iohexol) was 53.6 mL/minute/1.73 m^2; in series [3] (abemaciclib in combination with metformin) it was 57.2 mL/minute/1.73 m^2. Further, in series [3] (abemaciclib vs. placebo periods), the “eGFR calculated using serum cystatin-C” value is given as “did not change”. The “Mean increase in SCr concentration” value in series [3] (between 10 and 12 hours postdose, 400 mg abemaciclib, healthy subjects) was 35.7 to 44.6 µmol/L. The “Reversible increase in SCr expected in patients” value in series [3] (patients dosed with abemaciclib, suggested by the findings) was 10–40%. Besides, the “Time of peak SCr elevation” value in series [3] (post abemaciclib dose) is 12 h. The “Effect of coadministration on iohexol PK” value in series [4] (400 mg abemaciclib with iohexol) was “did not affect”. In addition, the “Trends in serum cystatin-C or NGAL indicative of renal injury” value in series [5] (abemaciclib with either metformin or iohexol) is “no trends”. In addition, the “Creatinine-normalized urinary concentrations of NGAL and KIM-1” value in series [5] (following abemaciclib dosing) is on record as “No notable change”. Further, the “Combined DDI index, OCT2” value in series [6] was 0.03. In addition, in series [7], the “Combined DDI index, MATE1” value came to 0.13.

For the compound `CC(=O)N(CC(O)CO)c1c(I)c(C(=O)NCC(O)CO)c(I)c(C(=O)NCC(O)CO)c1I` (stereo not drawn) [iohexol], the clearance was determined as 85.6 mL/min in series [4] and 89 mL/min in series [4] (3235 mg).

What is called clearance is the rate of elimination divided by the concentration. Low values mean a low capacity for elimination, high ones a high capacity for elimination.
